Our source for the melting point values is a melting point compilation (Tetko et al.; mined from patent text by program, amines drawn as free bases though some values may be those of a salt).

With `Cc1ccc(SC2OC(COC(=O)c3ccccc3)C(O)C(OC(=O)c3ccccc3)C2OC(=O)c2ccccc2)cc1` (configuration not stated), the melting point (as a rule, the temperature of the solid-liquid transition) was 197 °C.
Under `CCN(C(C)=O)c1cccc(-c2ccc3nncn3n2)c1` stands 122 to 127 °C.
On to `Cn1c(=O)c2c(nc(C=Cc3cccc(N(C(=O)OC(C)(C)C)C(=O)OC(C)(C)C)c3)n2C)n(C)c1=O`, for which the melting point lay within 175 to 177 °C.
Under `CCN(CC)c1cc(-c2ccccc2)nc2nn(-c3ccccc3)cc12` stands 148 to 149 °C; under `N#Cc1ccc(C=Cc2cc(=O)c3cc(Br)ccc3o2)cc1`, 275 to 276 °C; under `CCCCCCN1CCC(C(=O)NCC)(c2ccccc2)CC1`, 92 to 94 °C.
Under `O=C(c1cccc(Cl)c1)c1ccccc1Nc1ncccc1[N+](=O)[O-]` stands 124 to 125 °C.
Under `CCCCN1C(=O)CSC(=NO)C1C` (configuration not stated) stands 118 to 120 °C; under `CN(C)c1nc(C(F)(F)F)cc(=O)n1-c1cc(F)c(C#N)cc1F`, 147 °C; under `O=c1c2ccccc2nc(-c2cc(-c3ccc(Cl)cc3)c(N3CCOCC3)s2)n1-c1ccccc1Cl`, 215 to 217 °C.
With `CCNn1nnnc1S`, the melting point was in the range of 90 to 91 °C.
Under `COC(=O)C(C)c1ccc(OCCNC(=O)C2Cc3ccccc3N2S(=O)(=O)c2ccc(-c3cc(C(F)(F)F)ccc3Cl)cc2)cc1` (configuration not stated) stands 55 to 63 °C; under `CCCCn1c(=O)cnn(-c2ccc(N3CCN(c4ccc(OC)cc4)CC3)cc2)c1=O`, 181 °C.
Under `O=c1[nH]sc2nc(-c3ccccc3)nc(CCc3ccccc3)c12` stands 144 to 147 °C.
Under `COc1ccc(-c2[nH]nc3c2C(=O)c2c(NC(=O)Cc4ccc(NC(=O)CN)cc4)cccc2-3)cc1` stands 228 °C; under `O=C(Nc1ccc2c(c1)OCO2)N1Cc2ccccc2C1`, 165 to 166 °C; under `CCCCOCCOc1ccc(-c2ccc(-n3cccn3)c(C=C(C)C(=O)O)c2)cc1`, 132 to 134 °C.
Compound `COc1cc(COc2nn(CCO)cc2C=O)ccc1OCc1nc(-c2ccco2)oc1C` gave a melting point of 149 to 150 °C.
Under `Oc1ccc(C(c2ccc(O)cc2)n2cncn2)cc1` stands 230 °C; under `CCCNC1=NC(c2cccc(-c3cncnc3)c2)(c2ccc(OCCC)c(C)c2)C(=O)N1C` (configuration not stated), 64 to 66 °C.
Under `CN(Cc1ncc(C(F)(F)F)cc1Cl)C(=O)c1c(Cl)cccc1Cl` stands 83 to 84 °C; under `Cc1c(C(=O)c2ccc(F)cc2)c(C)n(C)c1C(=O)c1cccnc1`, 85 to 88 °C; under `Nc1sc(/C=C/Cc2ccc(Cl)cc2)c(CN(C2CCCCC2)C2CCCCC2)c1C(=O)c1ccc(Cl)cc1`, 143 to 146 °C.
For `CCOCc1nc2c(N(Cc3ccccc3)Cc3ccccc3)nc(C)cc2n1NC(=O)OC(C)(C)C` the value was 139 to 141 °C; for `Cc1ccc(CSc2nnc(-c3ccc4c(c3)CCO4)o2)cc1`, 190 to 191 °C; for `CCOC(=O)C#CC(C)(C)OC(N)=O`, 111 to 114 °C.
With `Nc1ccc(C(=O)N2CCOCC2)cc1OCc1ccc(-c2ccccc2)c(-c2nnnn2C(c2ccccc2)(c2ccccc2)c2ccccc2)c1`, the melting point was 95 to 105 °C.
Under `OCCNc1ccc2nnn(Cc3ccc4ncccc4c3)c2n1` stands 184 to 186 °C; under `COc1ccc(C(=O)C=Cc2ccccc2F)cc1`, 92 to 93 °C.
Under `CC(=O)NCCNc1nc(Nc2ccc(Cl)cc2)ncc1[N+](=O)[O-]` stands 224 to 226 °C; under `CCCN(C)CC(C)N1c2ccccc2Sc2ccc(C(N)=S)cc21` (racemic), 204 °C; under `COc1ccc(CSc2nnc(-c3ccc4nccn4c3)o2)cc1C#N`, 211 to 212 °C.
Under `COC(=O)C1=C(C)NC(C)=C(C(=O)OCCCl)C1c1cccc(Br)n1` (configuration not stated) stands 152 to 153 °C; under `N#CC(Br)c1ccccn1` (configuration not stated), 62 to 64 °C; under `CCCCc1ncc(/C=C(\Cc2cccs2)C(=O)O)n1Cc1cccc(Cl)c1Cl`, 184 to 185 °C.
`CC(=O)CN(c1ccc(Cl)cc1)S(C)(=O)=O` returned a melting point of 108 °C.
`O=CC1CCSc2[nH]c3ccccc3c21` (configuration not stated) came in with a melting point of 60 to 65 °C.
For `Cc1cnc2c(C(N)=O)cnn2c1-c1cccc(C(F)(F)F)c1` the value was 237 to 239 °C; for `CC(C)CN1C(=O)[C@H](CC(=O)O)O[C@@H](c2ccccc2Cl)c2cc(Cl)ccc21`, 183 to 186 °C; for `COc1ccc(C2(C#N)C3CC4CC(C3)CC2C4)cc1` (configuration not stated), 165 to 166 °C.
Under `CCOC(=O)C=Cc1cc(Br)cc(Cc2cccnc2)c1` stands 81 to 83 °C; under `CC(Br)c1ccc2c(=O)c3ccccc3ccc2c1` (configuration not stated), 93 to 95 °C.
For `COc1ccccc1NC(=O)NCc1cccc2c1CN(C1CCC(=O)NC1=O)C2=O` (configuration not stated) the value was 187 to 189 °C.
`Cc1cc(C#N)c(=O)[nH]c1-c1ccccc1` registered a melting point of 250 to 257 °C.
For `N#Cc1ccc(Nc2nc(Cl)nc(Cc3c(Cl)cccc3Cl)n2)cc1` the value was 243 to 244 °C.
For `CC(=O)OCC1(C)SC2C(NC(=O)Cc3ccccc3)C(=O)N2C1C(=O)OCC(Cl)(Cl)Cl` (configuration not stated) the value was 116 to 118 °C; for `CCCn1c(=O)c2c(N)n(CCCl)nc2n(Cc2ccccc2)c1=O`, 126 to 128 °C; for `Cc1cc(-n2ccc(OCc3ccccc3)cc2=O)sc1C(=O)NCc1cccc(F)c1`, 140 to 141 °C.
For `COc1ccc([N+](=O)[O-])c(OCC(N)=O)c1`, the melting point was 185 to 187 °C.
Under `COC(=O)NCC(C)OS(C)(=O)=O` (configuration not stated) stands 37 to 40 °C; under `CN1OCC(=O)N(c2ccc(Oc3ccccc3)cc2)C1=S`, 159 to 160 °C; under `CCCOc1c(C2CCN(CCCCNC(=O)c3ccc(-c4ccc(C(F)(F)F)cc4)cc3)CC2)ccc2ccccc12`, 191 to 192 °C.
Under `COc1cc2cc(CO)c(CO)c(-c3ccnc(-n4c(=O)cc(C(=O)N(CCO)CCO)c5ccccc54)c3)c2cc1OC` stands 65 to 68 °C; under `NCCCCCCc1ccc(C2=NNC(=O)CC2)cc1`, 153 to 154 °C.
For `CCCCOCCOc1ccc(-c2ccc3c(c2)C=C(C(=O)O)CCN3Cc2ccccc2)cc1` the value was 133 to 138 °C; for `Cn1ccnc1N1CCC(c2ccc([N+](=O)[O-])cc2)CC1`, 155 to 156 °C.
`CCNC(=S)Nc1cc(Cl)ccc1C` displayed a melting point of 120 to 122 °C.
Under `CCSCCn1c(=N)sc2cc(C(F)(F)F)ccc21` stands 50 °C.
As to `O=C(Cl)N(c1ccc(F)cc1)c1ccc(F)cc1`, the melting point fell in the range of 53 to 54 °C.
For `ClCc1ccc(OCc2csc(-c3ccccc3)n2)nc1` the value was 117 to 118 °C.
For `Cc1nc(Sc2cccc(C(=O)O)n2)sc1CC(=O)O` the value was 211 to 213 °C.
For `CC(C)OCC(=O)C1CCC2C3CCC4CC(O)CCC4(C)C3C(=O)CC12C` (configuration not stated) the value was 121 to 125 °C.
